Assay results as given in patent US9956187B2 (priority 2014, dated 2018).
Counter-ions that a name gives are not always drawn.

Columns and labels:
[1] = test system: chronic constriction injury (CCI) rats; test: Thermal hyperalgesia, paw withdrawal latency in CCI model; format: in vivo, rat; conditions: 3 mg/kg IP daily, days 1-10 after CCI, vs NS group, P<0.05
Method: CCI procedures on the sciatic nerve of male SD rats were performed as previously described. Briefly, after rats were anesthetized by i.p. injection of sodium pentobarbital (40 mg/kg), the right sciatic nerve of the mid-thigh level was exposed. Chromic gut 4-0 was loosely tied around the nerve for 4 ligatures with about 1 mm between knots. The ligation was performed to just barely reduce the diameter of sciatic nerve. […] In the sham group, the sciatic nerve was exposed without ligation. The incisions of rats were closed in layers. After recovery from anesthesia, rats were housed individually in the clear plastic cages with soft bedding covered with 3-6 cm of sawdust.
Same volume of normal saline (2 ml) was injected in the other two groups at the same time.
The paw withdrawal latency (PWL) to radiant heat was used to evaluate thermal hyperalgesia for nociceptive response as previously described. Rats were placed in transparent plexiglass cage (23×18×13 cm) with a piece of 3-mm-thick glass floor and received heat radiation after acclimating to the environments for 30 minutes. […] A digital timer automatically measured the duration between the starting of heat and the paw withdrawal, which was considered as the PWL. The PWL was measured in 0.1 second and a maximum of 20 seconds exposure to radiation was set to avoid injury. […]

D3 = target: T1, D3 (Homo sapiens, UniProt P35462); test: Primary radioligand binding screen
T1 construct: expressed in transfected cells
Method: (§1) Evidence for interaction was based on the inhibition of the reference ligand-binding signal. […] Briefly, 50 μL aliquots of radioactive ligand (5 nM) were added to wells of a 96-well plate, which contained 25 μL of the reference or test ligands. We employed transfected cell lines expressing mainly human (unless otherwise specified) recombinant receptors, monoamine transporters, or ion channels for crude membrane preparation. Detailed information about our membrane preparation is well known in the art and can be obtained from publicly available protocol online. Crude membrane fractions containing the receptors were resuspended in standard binding buffer and 50 μL aliquots added to each well. The reactions were incubated at room temperature for 1.5 hours to allow for radioligand binding equilibration. Bound radioactivity was harvested by rapid filtration through a 0.3% polyethyleneimine-treated, 96-well filter mats using a 96-well Filtermate harvester. The dried filters were treated with melted scintillant and a Microbeta scintillation counter was utilized to measure the radioactivity retained on the filter.

Beta1 = target: T2, Beta1 (Homo sapiens, UniProt P08588); test: Primary radioligand binding screen
T2 construct: expressed in transfected cells
Method: as §1

Beta2 = target: T3, Beta2 (Homo sapiens, UniProt P07550); test: Primary radioligand binding screen
T3 construct: expressed in transfected cells
Method: as §1

Alpha1D = target: T4, Alpha1D (Homo sapiens, UniProt P25100); test: Primary radioligand binding screen
T4 construct: expressed in transfected cells
Method: as §1

Alpha2C = target: T5, Alpha2C (Homo sapiens, UniProt P18825); test: Primary radioligand binding screen
T5 construct: expressed in transfected cells
Method: as §1

H2 = target: T6, H2 (Homo sapiens, UniProt P25021); test: Primary radioligand binding screen
T6 construct: expressed in transfected cells
Method: as §1

SERT = target: T7, SERT (Homo sapiens, UniProt P31645); test: Primary radioligand binding screen
T7 construct: expressed in transfected cells
Method: as §1

Beta3 = target: T8, Beta3 (Homo sapiens, UniProt P13945); test: Primary radioligand binding screen
T8 construct: expressed in transfected cells
Method: as §1

M3 = target: T9, M3 (Homo sapiens, UniProt P20309); test: Primary radioligand binding screen
T9 construct: expressed in transfected cells
Method: as §1

5-HT6 = target: T10, 5-HT6 (Homo sapiens, UniProt P50406); test: Primary radioligand binding screen
T10 construct: expressed in transfected cells
Method: as §1

Alpha1A = target: T11, Alpha1A (Homo sapiens, UniProt P35348); test: Primary radioligand binding screen
T11 construct: expressed in transfected cells
Method: as §1

5-HT1D = target: T12, 5-HT1D (Homo sapiens, UniProt P28221); test: Primary radioligand binding screen
T12 construct: expressed in transfected cells
Method: as §1

H3 = target: T13, H3 (Homo sapiens, UniProt Q9Y5N1); test: Primary radioligand binding screen
T13 construct: expressed in transfected cells
Method: as §1

M5 = target: T14, M5 (Homo sapiens, UniProt P08912); test: Primary radioligand binding screen
T14 construct: expressed in transfected cells
Method: as §1

Alpha1B = target: T15, Alpha1B (Homo sapiens, UniProt P35368); test: Primary radioligand binding screen
T15 construct: expressed in transfected cells
Method: as §1

5-HT1A = target: T16, 5-HT1A (Homo sapiens, UniProt P08908); test: Primary radioligand binding screen
T16 construct: expressed in transfected cells
Method: as §1

Alpha2B = target: T17, Alpha2B (Homo sapiens, UniProt P18089); test: Primary radioligand binding screen
T17 construct: expressed in transfected cells
Method: as §1

M4 = target: T18, M4 (Homo sapiens, UniProt P08173); test: Primary radioligand binding screen
T18 construct: expressed in transfected cells
Method: as §1

D1 = target: T19, D1 (Homo sapiens, UniProt P21728); test: Primary radioligand binding screen
T19 construct: expressed in transfected cells
Method: as §1

5-HT7 = target: T20, 5-HT7 (Homo sapiens, UniProt P34969); test: Primary radioligand binding screen
T20 construct: expressed in transfected cells
Method: as §1

5-HT1E = target: T21, 5-HT1E (Homo sapiens, UniProt P28566); test: Primary radioligand binding screen
T21 construct: expressed in transfected cells
Method: as §1

D4 = target: T22, D4 (Homo sapiens, UniProt P21917); test: Primary radioligand binding screen
T22 construct: expressed in transfected cells
Method: as §1

5-HT2A = target: T23, 5-HT2A (Homo sapiens, UniProt P28223); test: Primary radioligand binding screen
T23 construct: expressed in transfected cells
Method: as §1

DAT = target: T24, DAT (Homo sapiens, UniProt Q01959); test: Primary radioligand binding screen
T24 construct: expressed in transfected cells
Method: as §1

Sigma 2 = Sigma 2 (Rattus norvegicus, UniProt Q5U3Y7); test: Primary radioligand binding screen
Method: as §1

5-HT1B = target: T25, 5-HT1B (Homo sapiens, UniProt P28222); test: Primary radioligand binding screen
T25 construct: expressed in transfected cells
Method: as §1

M2 = target: T26, M2 (Homo sapiens, UniProt P08172); test: Primary radioligand binding screen
T26 construct: expressed in transfected cells
Method: as §1

D2 = target: T27, D2 (Homo sapiens, UniProt P14416); test: Primary radioligand binding screen
T27 construct: expressed in transfected cells
Method: as §1

5-HT2C = target: T28, 5-HT2C (Homo sapiens, UniProt P28335); test: Primary radioligand binding screen
T28 construct: expressed in transfected cells
Method: as §1

DOR = target: T29, DOR (Homo sapiens, UniProt P41143); test: Primary radioligand binding screen
T29 construct: expressed in transfected cells
Method: as §1

T11 sequence (P35348 whole entry): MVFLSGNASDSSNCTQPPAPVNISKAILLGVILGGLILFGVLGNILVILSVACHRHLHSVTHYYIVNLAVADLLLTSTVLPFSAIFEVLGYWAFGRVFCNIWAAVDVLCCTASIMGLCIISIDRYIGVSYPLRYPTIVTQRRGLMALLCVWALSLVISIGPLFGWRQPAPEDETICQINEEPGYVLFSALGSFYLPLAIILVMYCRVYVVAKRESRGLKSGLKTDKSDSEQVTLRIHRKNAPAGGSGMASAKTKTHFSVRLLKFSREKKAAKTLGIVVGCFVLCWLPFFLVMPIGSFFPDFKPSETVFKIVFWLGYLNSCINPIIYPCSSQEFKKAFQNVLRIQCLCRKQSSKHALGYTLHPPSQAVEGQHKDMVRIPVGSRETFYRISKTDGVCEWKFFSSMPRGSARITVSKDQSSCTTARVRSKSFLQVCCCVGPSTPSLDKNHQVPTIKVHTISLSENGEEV
T17 sequence (P18089 whole entry): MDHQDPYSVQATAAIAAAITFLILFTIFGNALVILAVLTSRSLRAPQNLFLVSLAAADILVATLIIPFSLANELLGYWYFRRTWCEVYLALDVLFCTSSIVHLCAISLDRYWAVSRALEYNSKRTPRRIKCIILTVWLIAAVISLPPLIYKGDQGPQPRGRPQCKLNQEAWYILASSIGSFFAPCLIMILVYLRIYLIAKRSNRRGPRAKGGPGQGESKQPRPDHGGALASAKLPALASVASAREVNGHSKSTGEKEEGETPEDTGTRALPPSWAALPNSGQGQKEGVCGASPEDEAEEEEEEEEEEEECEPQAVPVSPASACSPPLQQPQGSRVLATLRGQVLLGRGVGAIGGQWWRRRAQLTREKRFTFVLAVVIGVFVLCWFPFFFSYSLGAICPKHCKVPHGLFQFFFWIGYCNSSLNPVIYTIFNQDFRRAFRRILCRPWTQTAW
T9 sequence (P20309 whole entry): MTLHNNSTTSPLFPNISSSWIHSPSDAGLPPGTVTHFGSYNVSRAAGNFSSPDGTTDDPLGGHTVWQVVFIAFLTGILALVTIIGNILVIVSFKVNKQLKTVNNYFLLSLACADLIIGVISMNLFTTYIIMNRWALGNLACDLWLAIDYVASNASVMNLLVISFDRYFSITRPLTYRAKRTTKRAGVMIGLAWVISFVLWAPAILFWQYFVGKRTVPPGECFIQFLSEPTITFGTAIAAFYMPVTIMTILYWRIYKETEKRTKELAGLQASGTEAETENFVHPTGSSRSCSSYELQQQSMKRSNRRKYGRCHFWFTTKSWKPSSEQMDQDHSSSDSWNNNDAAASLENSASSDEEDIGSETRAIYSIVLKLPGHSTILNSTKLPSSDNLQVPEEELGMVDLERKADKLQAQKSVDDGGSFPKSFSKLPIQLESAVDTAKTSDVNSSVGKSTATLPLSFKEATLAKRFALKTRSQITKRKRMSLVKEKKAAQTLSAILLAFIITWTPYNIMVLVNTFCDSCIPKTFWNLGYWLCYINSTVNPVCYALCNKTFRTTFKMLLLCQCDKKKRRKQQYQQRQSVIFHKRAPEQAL
T13 sequence (Q9Y5N1 whole entry): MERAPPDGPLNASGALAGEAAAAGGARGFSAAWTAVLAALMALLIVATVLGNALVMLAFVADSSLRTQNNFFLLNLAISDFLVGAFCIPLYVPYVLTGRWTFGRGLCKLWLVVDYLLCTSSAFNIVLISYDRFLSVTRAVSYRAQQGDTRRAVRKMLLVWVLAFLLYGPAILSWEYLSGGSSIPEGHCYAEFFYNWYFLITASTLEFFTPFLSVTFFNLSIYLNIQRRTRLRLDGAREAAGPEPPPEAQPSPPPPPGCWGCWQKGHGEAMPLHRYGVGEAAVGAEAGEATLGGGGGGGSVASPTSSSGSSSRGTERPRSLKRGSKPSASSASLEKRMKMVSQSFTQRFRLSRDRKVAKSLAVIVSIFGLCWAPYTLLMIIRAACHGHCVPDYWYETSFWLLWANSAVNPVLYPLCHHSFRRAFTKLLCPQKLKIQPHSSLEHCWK
T23 sequence (P28223 whole entry): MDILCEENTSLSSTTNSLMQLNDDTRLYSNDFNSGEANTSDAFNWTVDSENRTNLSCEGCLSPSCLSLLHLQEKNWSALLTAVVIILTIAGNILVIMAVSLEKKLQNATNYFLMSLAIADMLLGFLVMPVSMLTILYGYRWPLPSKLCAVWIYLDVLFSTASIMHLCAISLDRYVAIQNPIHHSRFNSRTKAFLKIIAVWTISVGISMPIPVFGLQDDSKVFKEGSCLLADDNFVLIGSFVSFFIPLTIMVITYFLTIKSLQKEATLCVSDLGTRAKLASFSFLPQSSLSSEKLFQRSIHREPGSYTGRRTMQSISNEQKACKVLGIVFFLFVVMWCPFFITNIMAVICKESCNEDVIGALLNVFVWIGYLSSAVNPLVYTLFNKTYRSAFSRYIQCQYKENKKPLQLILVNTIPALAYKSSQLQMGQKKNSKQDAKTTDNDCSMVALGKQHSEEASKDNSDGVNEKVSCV
T10 sequence (P50406 whole entry): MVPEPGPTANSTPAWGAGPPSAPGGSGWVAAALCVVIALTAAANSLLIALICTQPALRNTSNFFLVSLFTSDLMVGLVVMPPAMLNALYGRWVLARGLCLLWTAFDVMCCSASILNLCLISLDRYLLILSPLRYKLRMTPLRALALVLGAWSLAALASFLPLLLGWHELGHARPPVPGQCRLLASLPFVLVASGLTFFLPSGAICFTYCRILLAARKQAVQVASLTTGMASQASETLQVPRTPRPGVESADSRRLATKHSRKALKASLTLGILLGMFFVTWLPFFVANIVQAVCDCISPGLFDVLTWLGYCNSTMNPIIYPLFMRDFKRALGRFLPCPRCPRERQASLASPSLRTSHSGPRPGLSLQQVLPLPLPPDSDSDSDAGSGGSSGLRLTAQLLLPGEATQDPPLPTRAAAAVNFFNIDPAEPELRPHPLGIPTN
T15 sequence (P35368 whole entry): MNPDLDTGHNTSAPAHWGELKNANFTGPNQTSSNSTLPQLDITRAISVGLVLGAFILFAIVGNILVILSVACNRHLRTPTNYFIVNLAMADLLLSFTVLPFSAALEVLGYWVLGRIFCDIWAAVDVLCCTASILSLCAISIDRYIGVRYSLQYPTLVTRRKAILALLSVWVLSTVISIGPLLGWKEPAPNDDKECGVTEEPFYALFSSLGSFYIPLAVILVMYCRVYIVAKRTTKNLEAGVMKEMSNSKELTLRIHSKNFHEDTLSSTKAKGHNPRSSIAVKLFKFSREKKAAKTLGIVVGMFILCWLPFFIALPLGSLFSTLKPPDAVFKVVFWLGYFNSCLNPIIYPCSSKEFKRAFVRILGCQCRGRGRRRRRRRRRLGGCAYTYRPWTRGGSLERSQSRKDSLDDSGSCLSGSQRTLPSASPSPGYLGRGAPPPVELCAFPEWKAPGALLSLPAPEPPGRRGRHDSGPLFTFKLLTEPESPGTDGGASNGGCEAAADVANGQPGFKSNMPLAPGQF
T16 sequence (P08908 whole entry): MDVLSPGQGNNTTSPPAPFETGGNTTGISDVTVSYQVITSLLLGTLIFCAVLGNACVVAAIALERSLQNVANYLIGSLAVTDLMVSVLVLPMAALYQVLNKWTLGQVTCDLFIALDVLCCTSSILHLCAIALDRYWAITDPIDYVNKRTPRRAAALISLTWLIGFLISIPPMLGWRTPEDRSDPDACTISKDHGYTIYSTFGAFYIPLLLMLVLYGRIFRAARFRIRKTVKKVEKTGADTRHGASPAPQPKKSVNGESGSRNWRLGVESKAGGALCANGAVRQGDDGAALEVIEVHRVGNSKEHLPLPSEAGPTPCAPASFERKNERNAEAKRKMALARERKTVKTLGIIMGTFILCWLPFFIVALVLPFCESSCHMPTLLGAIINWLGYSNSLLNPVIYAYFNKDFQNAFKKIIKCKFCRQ
T19 sequence (P21728 whole entry): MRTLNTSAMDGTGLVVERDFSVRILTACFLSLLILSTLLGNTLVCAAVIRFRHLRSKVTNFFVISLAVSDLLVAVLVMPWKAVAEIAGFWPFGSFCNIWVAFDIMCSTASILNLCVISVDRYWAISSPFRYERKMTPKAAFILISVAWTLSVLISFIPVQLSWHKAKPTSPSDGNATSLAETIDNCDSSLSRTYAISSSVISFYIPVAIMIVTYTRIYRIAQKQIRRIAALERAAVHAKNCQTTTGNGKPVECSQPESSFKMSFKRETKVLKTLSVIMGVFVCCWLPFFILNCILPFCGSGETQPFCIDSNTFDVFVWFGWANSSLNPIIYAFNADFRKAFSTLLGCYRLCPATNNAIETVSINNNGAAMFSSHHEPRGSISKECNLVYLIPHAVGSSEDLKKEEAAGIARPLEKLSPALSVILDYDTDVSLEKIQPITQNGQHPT
T22 sequence (P21917 whole entry): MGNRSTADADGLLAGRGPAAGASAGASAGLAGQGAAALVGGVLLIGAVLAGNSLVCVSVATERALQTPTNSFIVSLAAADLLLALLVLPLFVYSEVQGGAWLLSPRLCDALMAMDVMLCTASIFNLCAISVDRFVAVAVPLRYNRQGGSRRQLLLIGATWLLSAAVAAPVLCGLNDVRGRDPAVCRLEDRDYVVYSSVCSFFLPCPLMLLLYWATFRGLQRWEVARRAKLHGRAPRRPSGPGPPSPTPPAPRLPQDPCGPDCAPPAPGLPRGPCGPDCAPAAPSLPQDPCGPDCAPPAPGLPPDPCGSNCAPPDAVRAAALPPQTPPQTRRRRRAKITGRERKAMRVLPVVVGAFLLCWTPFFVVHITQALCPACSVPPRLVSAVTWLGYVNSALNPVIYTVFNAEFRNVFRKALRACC
Sigma 2, sequence (Q5U3Y7 whole entry): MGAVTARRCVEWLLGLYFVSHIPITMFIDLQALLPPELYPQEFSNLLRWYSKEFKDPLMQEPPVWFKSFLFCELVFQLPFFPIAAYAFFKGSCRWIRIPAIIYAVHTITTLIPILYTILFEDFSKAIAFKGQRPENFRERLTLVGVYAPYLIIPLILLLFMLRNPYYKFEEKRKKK

With `C[C@@]12CCCCC[C@@H](Cc3ccc(O)cc31)[C@@H]2N` [Dezocine, (−)-13β-amino-5,6,7,8,9,10,11,12-octahydro-5α-methyl-5,11-methanobenxocyclodecen-31-ol, hydrobromide] the “paw withdrawal latency (PWL)” value [1] was “significantly improved”, the inhibition at 10 µM (D3) was -9.4% and the inhibition at 10 µM (Beta1) was 10%. For the same compound, the inhibition at 10 µM (Beta2) was -4.5%, the inhibition at 10 µM (Alpha1D) was 8.9% and the inhibition at 10 µM (Alpha2C) was -7.9%. The inhibition at 10 µM (H2) was 33.6%, the inhibition at 10 µM (SERT) was 97.7% and the inhibition at 10 µM (Beta3) was -15%. The inhibition at 10 µM (M3) was -3.4%, the inhibition at 10 µM (5-HT6) was 10.9% and the inhibition at 10 µM (Alpha1A) was 4.9%. For the same compound, the inhibition at 10 µM (5-HT1D) was -0.4%, the inhibition at 10 µM (H3) was -1.6% and the inhibition at 10 µM (M5) was 19.4%. For the same compound, the inhibition at 10 µM (Alpha1B) was 14.7%, the inhibition at 10 µM (5-HT1A) was 43.5% and the inhibition at 10 µM (Alpha2B) was 21.2%. It also gave an inhibition at 10 µM (M4) of 2.5%, an inhibition at 10 µM (D1) of 11.5% and an inhibition at 10 µM (5-HT7) of 20.9%. For the same compound, the inhibition at 10 µM (5-HT1E) was -2.4%, the inhibition at 10 µM (D4) was -5.1% and the inhibition at 10 µM (5-HT2A) was -10%. It also gave an inhibition at 10 µM (DAT) of 15.8%, an inhibition at 10 µM (Sigma 2) of 6.3% and an inhibition at 10 µM (5-HT1B) of -14.1%. The inhibition at 10 µM (M2) was 31.5%, the inhibition at 10 µM (D2) was -3.8% and the inhibition at 10 µM (5-HT2C) was 19.8%. For the same compound, the inhibition at 10 µM (DOR) was 58.5%.
